Data published in patent US20220259213A1, “PYRROLOPYRAZOLE DERIVATIVES, PREPARATION METHOD THEREOF AND APPLICATION THEREOF IN MEDICINE” (SHANGHAI MEDICILON INC., priority 2019, published 2022).

Molecular target: T1, H+/K+ATPase (Oryctolagus cuniculus, UniProt P27112)
T1 construct: The stomach tissue of the rabbit was separated; from tissue; host or cells: rabbit stomach (fundus) mucosa; membrane pellet obtained by differential and Ficoll centrifugation
Test: determination of compounds' inhibition of H+/K+ATPase enzyme activity (malachite green)
Assay type: biochemical
Settings: enzyme extracted from rabbit stomach mucosa; 500 μM ATP; pH 6.5; 37° C.; OD 620 nm; read-out: IC50(μM) inhibition rate (IC50) of H+/K+ATPase enzyme activity
Procedure: Test example: determination of compounds' inhibition of H+/K+ATPase enzyme activity
The following experiment is used to determine the inhibitory effect of the compound of the present invention on the H+/K+ATPase enzyme activity.
Enzyme working solution: titrating the enzyme, diluting the enzyme with buffer solution 1, and taking 5 μl of the diluted solution into 50 μl reaction system.
ATP solution: 100 mM ATP was diluted to 5 mM with no K+buffer, and 5 μl of the diluted solution was added to the 50 μl reaction system, that is, the final concentration of ATP was 500 μM.
MLG color development liquid: 0.12% MLG, 7.5% ammonium molybdate, 11% Tween-20 was mixed as 100:25:2, and adding 15 μl of the mixture into each well during detection.
Buffer 1: 5 mM Tris-HCl pH 6.5, 5 mM magnesium chloride (magnesium chloride), 10 μM valinomycin (valinomycin).
Buffer 2: 50 mM Tris-HCl pH 6.5, 5mM magnesium chloride (magnesium chloride), 10 μM valinomycin (valinomycin), 20 mM KCl.
3.1. H^+/K^+ ATPase enzyme extraction
(1) The stomach tissue of the rabbit was separated, and the blood was washed with tap water, food residue.
(5) After homogenization, if there were larger tissue particles, they could be removed by centrifugation (600 g, 10 min), and then the supernatant was transfered to a clean centrifuge tube. After centrifugation at 20000 g for 30 minutes, then the supernatant was transferred to a clean centrifuge tube at 100000 g for 90 minutes, and the precipitate was collected.
(7) Resuspending the precipitate with homogenization buffer, blowing uniformly, and the protein concentration was measured by Bradford. Freezing in tubes at −80° C. for later use.
3.2. H+/K+ATPase activity experiment
(1) Adding 35 μl of reaction buffer to each experimental well, and then adding 35 μl of buffer 1.
(2) Adding 5 μl buffer 1 containing 10% DMSO to the whole enzyme and buffer well.
(3) Adding 5 μl of 10× compound working solution to the compound well and mixing well.
(4) Adding 5 μl of buffer 1 to the buffer well.
(5) Adding 5 μl of 10× enzyme working solution to the remaining wells, mixing and incubating at 37° C. for 30minutes.
(6) Adding 5 μl of 10×ATP working solution to all experimental wells, mixing and incubating at 37° C. for 20 min.
(7) Adding 15 μl MLG chromogenic solution to all experimental wells, and uniformly mixing and incubating at room temperature for 5-30 min.
(8) The reading number of 620 nm was detected by an M5 instrument.
The inhibition rate is calculated with the following formula:
Inhibition rate (IC50)=[OD (sample well)−OD (full enzyme well containing potassium chloride)]/[(OD (full enzyme well containing potassium chloride)−(OD (full enzyme well without potassium chloride)]×100%

T1 sequence (P27112 whole entry): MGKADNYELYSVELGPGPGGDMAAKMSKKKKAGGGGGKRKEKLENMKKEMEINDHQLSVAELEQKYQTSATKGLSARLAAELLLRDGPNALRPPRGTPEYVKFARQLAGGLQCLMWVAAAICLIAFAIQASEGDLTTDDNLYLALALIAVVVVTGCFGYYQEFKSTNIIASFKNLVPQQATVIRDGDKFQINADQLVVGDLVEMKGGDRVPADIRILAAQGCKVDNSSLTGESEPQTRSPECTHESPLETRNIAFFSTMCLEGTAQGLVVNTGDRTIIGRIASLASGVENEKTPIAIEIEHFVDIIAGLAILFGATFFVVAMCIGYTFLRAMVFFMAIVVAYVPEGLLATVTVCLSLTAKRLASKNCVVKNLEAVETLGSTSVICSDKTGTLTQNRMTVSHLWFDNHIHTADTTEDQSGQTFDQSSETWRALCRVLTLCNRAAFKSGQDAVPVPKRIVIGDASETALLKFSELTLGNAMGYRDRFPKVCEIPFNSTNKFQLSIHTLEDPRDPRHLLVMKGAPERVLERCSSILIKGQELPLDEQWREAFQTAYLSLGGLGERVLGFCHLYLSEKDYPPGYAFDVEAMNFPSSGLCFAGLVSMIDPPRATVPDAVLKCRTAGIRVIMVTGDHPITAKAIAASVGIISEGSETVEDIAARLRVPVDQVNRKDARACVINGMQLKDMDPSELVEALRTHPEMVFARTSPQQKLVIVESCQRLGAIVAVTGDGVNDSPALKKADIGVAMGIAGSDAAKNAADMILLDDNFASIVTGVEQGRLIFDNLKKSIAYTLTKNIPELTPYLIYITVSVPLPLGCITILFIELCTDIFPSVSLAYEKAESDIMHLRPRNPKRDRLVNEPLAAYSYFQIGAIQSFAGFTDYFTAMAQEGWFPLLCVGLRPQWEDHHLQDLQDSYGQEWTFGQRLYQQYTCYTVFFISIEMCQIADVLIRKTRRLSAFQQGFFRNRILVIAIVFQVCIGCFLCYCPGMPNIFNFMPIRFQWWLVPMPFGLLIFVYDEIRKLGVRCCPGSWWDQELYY
T1 sequence (P18597 whole entry partner): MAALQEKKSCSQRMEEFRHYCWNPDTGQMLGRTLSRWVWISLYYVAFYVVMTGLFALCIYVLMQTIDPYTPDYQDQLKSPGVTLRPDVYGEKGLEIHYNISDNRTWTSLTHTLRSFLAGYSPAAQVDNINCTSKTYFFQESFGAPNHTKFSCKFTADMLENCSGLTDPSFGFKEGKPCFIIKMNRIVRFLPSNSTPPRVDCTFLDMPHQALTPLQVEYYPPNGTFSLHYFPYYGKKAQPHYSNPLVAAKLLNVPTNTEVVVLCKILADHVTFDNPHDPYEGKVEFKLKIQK

Row | IC50 | SMILES
1 | 3.55 µM | CN1Cc2nn(Cc3cccnc3)c(-c3ccc4c(c3)CCO4)c2C1 [Example 1, 3-(2,3-dihydrobenzofuran-5-methyl)-5-methyl-2-(pyridin-3-ylmethyl)-2,4,5,6-tetrahydropyrrole[3,4-c]pyrazole]
2 | 24 µM | CN1Cc2nn(Cc3cccnc3)c(-c3ccc4[nH]cnc4c3)c2C1 [Example 3, (5-methyl-2-(pyridin-3-ylmethyl)-2,4,5,6-tetrahydropyrrole[3,4-c]pyrazol-3-yl)-1H-benzo[d]imidazole]
3 | 0.674 µM | CN1Cc2nn(Cc3cccnc3)c(-c3ccccc3F)c2C1 [Example 4, (2-fluorophenyl)-5-methyl-2-(pyridin-3-ylmethyl)-2,4,5,6-tetrahydropyrrole[3,4-c]pyrazole]
4 | 1.38 µM | CN1Cc2nn(Cc3cccnc3)c(-c3ccc4occc4c3)c2C1 [Example 2, 3-(benzofuran-5-yl)-5-methyl-2-(pyridin-3-ylmethyl)-2,4,5,6-tetrahydropyrrole[3,4-c]pyrazole]
5 | 0.365 µM | COc1ccc(Cn2nc3c(c2-c2ccccc2F)CN(C)C3)cn1 [Example 5, 3-(2-fluorobenzeneyl)-2-((6-methoxypyridin-3-yl)methyl)-5-methyl-2,4,5,6-tetrahydropyrrolo[3,4-c]pyrazole]
